Measurements reported in the supplement of paper PMC11208160.

Assay: recombinant barcode read abundance after kanamycin selection (control-corrected) (log10(CPM+1)); higher = more efficient recombination; sequences stand for … in AGTGCAGAGAAAATCGGCCAGTTTTCTCTGCCTGCAGTCCGCATGCCGT…AGATTTATGCAGCGGACTGCCTTTCTCCCAAAGTGATAAACCGGACAGTATCATGGACCGGTTTTCCCGGTAATCCGTATTTGCAAGGTTGGTTTCACT; site = the 11-nt target
Protocol: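 Pooled E. coli target-specificity screen for the IS621 bridge recombinase. Each library plasmid pairs an 11-nt target (CT core) with a bridge RNA whose target-binding loop (9-nt LTG + 4-nt RTG) is reprogrammed; the rest of the 177-nt WT IS621 bridge RNA scaffold is fixed. The plasmid is co-electroporated with a WT donor plasmid; recombinase is induced with 0.1 mM IPTG and recombinants are selected on kanamycin. Recombinant barcodes are sequenced, converted to CPM, averaged over two biological replicates and corrected by the unselected control CPM. Molecule = full bridge RNA written as DNA: LTG = specificity nt 1-9, RTG = reverse complement of specificity nt 8-11, in the WT scaffold.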
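Note: IS621 recombinase and bridge RNA in Escherichia coli cells.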

Sequence	recombinant barcode read abundance (log10)
AGACGTACTTGGGTTCTAACCTGTTGCCT (site AGACGTACTAG)	1.65
AGACGTACTTGGGTTCTAACCTGTTGCCT (site AGCCGTACTAG)	0.102
AGACGTACTTGGGTTCTAACCTGTTGCCT (site AGGCGTACTAG)	0.128
AGACGTACTTGGGTTCTAACCTGTTGCCT (site AGTCGTACTAG)	0.0904
AGACGTCCTTGGGTTCTAACCTGTTGCTT (site AGACATCCTAA)	0.197
AGACGTCCTTGGGTTCTAACCTGTTGCTT (site AGACCTCCTAA)	0.162
AGACGTCCTTGGGTTCTAACCTGTTGCTT (site AGACGTCCTAA)	1.03
AGACGTCCTTGGGTTCTAACCTGTTGCTT (site AGACTTCCTAA)	0.15
AGAGCTCCTTGGGTTCTAACCTGTTGCGG (site AGAGCTCCTCC)	1.28
AGAGCTCCTTGGGTTCTAACCTGTTGCGG (site AGTGCTCCTCC)	0.196
AGAGGACCTTGGGTTCTAACCTGTTGCCT (site AGAGGACCTAG)	2.32
AGAGGACCTTGGGTTCTAACCTGTTGCCT (site TGAGCACCTAG)	0.213
AGAGGTTCTTGGGTTCTAACCTGTTGCCT (site AAAGGTTCTAG)	0.141
AGAGGTTCTTGGGTTCTAACCTGTTGCCT (site ACAGGTTCTAG)	0.0172
AGAGGTTCTTGGGTTCTAACCTGTTGCCT (site AGAGGTTCTAG)	1.58
AGAGGTTCTTGGGTTCTAACCTGTTGCCT (site ATAGGTTCTAG)	0.271
AGAGTAACTTGGGTTCTAACCTGTTGCAC (site AGAGTAACTGT)	2.19
AGAGTAACTTGGGTTCTAACCTGTTGCAC (site TCTCGTTCTTA)	0.063
AGAGTCCCTTGGGTTCTAACCTGTTGCGG (site AGAGTCCCTCC)	3.09
AGAGTCCCTTGGGTTCTAACCTGTTGCGG (site AGAGTCTCTCA)	0.295
AGAGTCTCTTGGGTTCTAACCTGTTGCTG (site AGAGTCCCTCC)	0.101

Sequence	recombinant barcode read abundance (log10)
AGAGTCTCTTGGGTTCTAACCTGTTGCTG (site AGAGTCTCTCA)	0.78
AGATACTCTTGGGTTCTAACCTGTTGCCT (site ACATAGTCTAG)	0.428
AGATACTCTTGGGTTCTAACCTGTTGCCT (site AGATACTCTAG)	2.66
AGATATACTTGGGTTCTAACCTGTTGCTT (site AGATATACTAA)	0.167
AGATATACTTGGGTTCTAACCTGTTGCTT (site CACCTGTCTCC)	0.0796
AGATCTCCTTGGGTTCTAACCTGTTGCGT (site AGATCTCCTAC)	0.777
AGATCTCCTTGGGTTCTAACCTGTTGCGT (site TCGAAGTCTTA)	0.0154
AGATGAGCTTGGGTTCTAACCTGTTGCGG (site AAATGGGCTCC)	0.0978
AGATGAGCTTGGGTTCTAACCTGTTGCGG (site AGATGAGCTCC)	1.51
AGATGTGCTTGGGTTCTAACCTGTTGCCT (site AGATGTGCTAG)	1.49
AGATGTGCTTGGGTTCTAACCTGTTGCCT (site CACAAACCTCT)	0.181
AGATTATCTTGGGTTCTAACCTGTTGCCT (site AGAATATCTAG)	0.21
AGATTATCTTGGGTTCTAACCTGTTGCCT (site AGATTATCTAG)	1.32
AGCAGCACTTGGGTTCTAACCTGTTGCCT (site AGCAGCACTAG)	0.731
AGCAGCACTTGGGTTCTAACCTGTTGCCT (site CGCAGCACTAG)	0.298
AGCAGTACTTGGGTTCTAACCTGTTGCTA (site AGCAGTACTTA)	0.299
AGCAGTACTTGGGTTCTAACCTGTTGCTA (site TTGGAGGCTAG)	0.248
AGCATCTCTTGGGTTCTAACCTGTTGCCG (site AGCATCTCTCG)	0.222
AGCATCTCTTGGGTTCTAACCTGTTGCCG (site CCTTGTACTAA)	0.0503
AGCATTCCTTGGGTTCTAACCTGTTGCCT (site AGCAGTGCTAG)	0.144
AGCATTCCTTGGGTTCTAACCTGTTGCCT (site AGCATTCCTAG)	0.394

Sequence	recombinant barcode read abundance (log10)
AGCCCTCCTTGGGTTCTAACCTGTTGCTC (site AGCCCTCCTAA)	0.01
AGCCCTCCTTGGGTTCTAACCTGTTGCTC (site AGCCCTCCTCA)	0.26
AGCCCTCCTTGGGTTCTAACCTGTTGCTC (site AGCCCTCCTGA)	1.19
AGCCCTCCTTGGGTTCTAACCTGTTGCTC (site AGCCCTCCTTA)	0.0233
AGCGGTCCTTGGGTTCTAACCTGTTGCCT (site AGCGGACCTAG)	0.797
AGCGGTCCTTGGGTTCTAACCTGTTGCCT (site AGCGGCCCTAG)	1.05
AGCGGTCCTTGGGTTCTAACCTGTTGCCT (site AGCGGGCCTAG)	0.409
AGCGGTCCTTGGGTTCTAACCTGTTGCCT (site AGCGGTCCTAG)	1.89
AGCGTCGCTTGGGTTCTAACCTGTTGCCT (site AGCGTCGCTAG)	1.45
AGCGTCGCTTGGGTTCTAACCTGTTGCCT (site TGCGTCGCTAG)	0.16
AGCGTTGCTTGGGTTCTAACCTGTTGCCT (site AGCATTGCTAG)	0.558
AGCGTTGCTTGGGTTCTAACCTGTTGCCT (site AGCCTTGCTAG)	0.142
AGCGTTGCTTGGGTTCTAACCTGTTGCCT (site AGCGTTGCTAG)	1.05
AGCGTTGCTTGGGTTCTAACCTGTTGCCT (site AGCTTTGCTAG)	0.16
AGCTCCGCTTGGGTTCTAACCTGTTGCCT (site AGCTCCGCTAG)	0.222
AGCTCCGCTTGGGTTCTAACCTGTTGCCT (site TGCTCGGCTAG)	0.2
AGCTGATCTTGGGTTCTAACCTGTTGCCT (site AGCTGATCTAG)	0.261
AGCTGATCTTGGGTTCTAACCTGTTGCCT (site CGCTGATCTAG)	0.0237
AGCTGATCTTGGGTTCTAACCTGTTGCCT (site GGCTGATCTAG)	0.147
AGCTGATCTTGGGTTCTAACCTGTTGCCT (site TGCTGATCTAG)	0.015
AGCTGGGCTTGGGTTCTAACCTGTTGCGG (site AGCTGGGCTCC)	1.6

Sequence	recombinant barcode read abundance (log10)
AGCTGGGCTTGGGTTCTAACCTGTTGCGG (site AGTTGGGCTCA)	0.393
AGCTTAGCTTGGGTTCTAACCTGTTGCCT (site AGCTTAGCTAG)	0.555
AGCTTAGCTTGGGTTCTAACCTGTTGCCT (site AGCTTAGCTCG)	0.577
AGCTTAGCTTGGGTTCTAACCTGTTGCCT (site AGCTTAGCTGG)	0.206
AGCTTAGCTTGGGTTCTAACCTGTTGCCT (site AGCTTAGCTTG)	0.158
AGGAACCCTTGGGTTCTAACCTGTTGCTA (site AGGAACCCTAA)	0.316
AGGAACCCTTGGGTTCTAACCTGTTGCTA (site AGGAACCCTCA)	0.0647
AGGAACCCTTGGGTTCTAACCTGTTGCTA (site AGGAACCCTGA)	0.02
AGGAACCCTTGGGTTCTAACCTGTTGCTA (site AGGAACCCTTA)	1.44
AGGAACCCTTGGGTTCTAACCTGTTGCTC (site AGGAACCCTAA)	0.19
AGGAACCCTTGGGTTCTAACCTGTTGCTC (site AGGAACCCTCA)	1.05
AGGAACCCTTGGGTTCTAACCTGTTGCTC (site AGGAACCCTGA)	0.574
AGGAACCCTTGGGTTCTAACCTGTTGCTC (site AGGAACCCTTA)	0.0757
AGGAACTCTTGGGTTCTAACCTGTTGCCT (site AGGAACTCTAG)	2.52
AGGAACTCTTGGGTTCTAACCTGTTGCCT (site CGGAACTCTAG)	0.573
AGGAATCCTTGGGTTCTAACCTGTTGCTT (site AGGAATCCTAA)	0.901
AGGAATCCTTGGGTTCTAACCTGTTGCTT (site AGGAGTCCTCA)	0.0229
AGGACAACTTGGGTTCTAACCTGTTGCCT (site AGAACAACTAG)	0.106
AGGACAACTTGGGTTCTAACCTGTTGCCT (site AGCACAACTAG)	0.155
